In patent US20240317708A1, “INHIBITORS OF TRANSGLUTAMINASES” (ZEDIRA GMBH, priority 2021, published 2024) one finds Papp, logD and IC50 data, which are given here for 15 molecules.

The nature of data set [1]: Caco-2 permeability assay (CacoReady kit). Format: in vitro ADME. Conditions: human. Summed up:
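Apparent permeability coefficients (Papp) were measured across Caco-2 cell barriers using a ready-to-use kit run per the supplier's protocol. Values serve as a predictor of oral/intestinal bioavailability.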
For orientation: Caco-2 cells form a polarised layer with tight junctions and transporters.

Data set [2] is described as follows: Log D shake flask method (octanol / PBS pH 7.4, HPLC). Conditions: octanol/phosphate-buffered saline (PBS); octanol / PBS pH 7.4, shake flask. Format: physicochemical. As for the experimental part:
In order to classify the inventive compounds according to their lipophilicity, Log D values (distribution coefficient) were determined by means of the well-established shake flask method, measuring the partition of a compound between an octanol and phosphate-buffered saline (PBS, pH 7.4) by HPLC.

Data set [3] concerns the target T1, recombinant human transglutaminase 2 (Homo sapiens, UniProt P21980).
T1 construct: purchased Zedira T022
T1 sequence (P21980 1-687): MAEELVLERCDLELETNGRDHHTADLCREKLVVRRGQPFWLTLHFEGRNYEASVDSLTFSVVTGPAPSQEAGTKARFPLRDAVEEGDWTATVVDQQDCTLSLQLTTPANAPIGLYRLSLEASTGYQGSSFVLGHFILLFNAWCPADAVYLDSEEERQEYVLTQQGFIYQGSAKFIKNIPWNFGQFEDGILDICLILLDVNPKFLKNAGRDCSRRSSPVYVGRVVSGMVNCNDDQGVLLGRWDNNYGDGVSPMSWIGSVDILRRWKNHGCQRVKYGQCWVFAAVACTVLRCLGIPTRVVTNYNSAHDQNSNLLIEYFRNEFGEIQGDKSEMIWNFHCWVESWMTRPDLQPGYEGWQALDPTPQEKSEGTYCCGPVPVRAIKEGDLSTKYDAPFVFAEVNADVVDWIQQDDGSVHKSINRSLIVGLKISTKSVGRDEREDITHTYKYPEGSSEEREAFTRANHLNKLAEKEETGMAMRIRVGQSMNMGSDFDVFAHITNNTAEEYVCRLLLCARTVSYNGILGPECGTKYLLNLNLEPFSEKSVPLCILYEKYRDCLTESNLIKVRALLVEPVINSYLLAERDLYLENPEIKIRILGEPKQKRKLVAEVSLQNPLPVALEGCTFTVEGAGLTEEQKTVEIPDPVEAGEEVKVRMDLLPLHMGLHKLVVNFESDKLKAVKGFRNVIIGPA
Nature of the data set: Transglutaminase assay (dansylcadaverine incorporation into dimethylcasein, DCC-assay). Type of data set: biochemical. Conditions: recombinant human TG2 10 nM, dansylcadaverine/dimethylcasein, 37° C. Summed up:
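IC50 derived from fluorescence slope between 20 and 30 min (λex 330 nm, λem 500 nm, 37 °C), expressed relative to a 2% DMSO control. Reaction: 10 nM recombinant human TG2, 4 μM dimethylcasein, 16.7 μM dansylcadaverine, 10 mM CaCl2 and glutathione, pH 8.0.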

Each structure is given as a SMILES string.

The Papp is a coefficient for how fast a substance crosses the barrier. A high value points to ready permeation. For orientation: logD means the decadic logarithm of the distribution of all forms, ionised or not, between an organic phase and buffer at a given pH. A low value points to lower lipophilicity. As a reminder, the IC50 is the concentration needed to halve the response being measured. With `COC(=O)/C=C/CC[C@H](NC(=O)c1oc2ccccc2c1C)C(=O)Nc1cccn(CC(=O)NC23CC4CC(CC(F)(C4)C2)C3)c1=O` [III-51, (S,E)-methyl 7-(1-(2-(3-fluoroadamantan-1-amino)-2-oxoethyl)-2-oxo-1,2-dihydropyridin-3-ylamino)-6-(3-methylbenzofuran-2-carboxamido)-7-oxohept-2-enoate], the Papp in data set [1] was in the range of 1 to 10 ×10⁻⁶ cm/s. This molecule also returned a logD in data set [2] of 3 to 5. Also, in data set [3], the IC50 is less than 25 nM.
For `COC(=O)/C=C/CC[C@H](NC(=O)c1oc2ccccc2c1C)C(=O)Nc1cccn(CC(=O)NC2C3CCC2CC3)c1=O` (stereo partly drawn) [III-65, (S,E)-methyl 7-(1-(2-(bicyclo[2.2.1]heptan-7-ylamino)-2-oxoethyl)-2-oxo-1,2-dihydropyridin-3-ylamino)-6-(3-methylbenzofuran-2-carboxamido)-7-oxohept-2-enoate], in that order: 1 to 10 ×10⁻⁶ cm/s, 3 to 5 and less than 25 nM.
For `COC(=O)/C=C/CC[C@H](NC(=O)c1cncn1C)C(=O)Nc1cccn(CC(=O)N[C@H]2C[C@H]3CC[C@]2(C)C3(C)C)c1=O` [III-60, (S,E)-methyl 6-(1-methyl-1H-imidazole-5-carboxamido)-7-oxo-7-(2-oxo-1-(2-oxo-2-((1R,2S,4R)-1,7,7-trimethylbicyclo[2.2.1]heptan-2-ylamino)ethyl)-1,2-dihydropyridin-3-ylamino)hept-2-enoate], in that order: less than 1 ×10⁻⁶ cm/s, 3 to 5 and less than 25 nM.
For `COC(=O)/C=C/CC[C@H](NC(=O)[C@@H]1C[C@H](Br)CN1)C(=O)Nc1cccn(CC(=O)NC2C3CC4CC(C3)CC2C4)c1=O` (stereo partly drawn) [III-27, (S,E)-methyl 6-((2S,4S)-4-bromopyrrolidine-2-carboxamido)-7-(1-(2-(2-adamantylamino)-2-oxoethyl)-2-oxo-1,2-dihydropyridin-3-ylamino)-7-oxohept-2-enoate], in that order: less than 1 ×10⁻⁶ cm/s, 3 to 5 and 25 to 250 nM.
Regarding `COC(=O)/C=C/CC[C@H](NC(=O)c1nc2ccccc2[nH]1)C(=O)Nc1cccn(CC(=O)NC2C3CC4CC(C3)CC2C4)c1=O` (stereo partly drawn) [III-11, (S,E)-methyl 6-(1H-benzo[d]imidazole-2-carboxamido)-7-(1-(2-(2-adamantylamino)-2-oxoethyl)-2-oxo-1,2-dihydropyridin-3-ylamino)-7-oxohept-2-enoate], the Papp in data set [1] is less than 1 ×10⁻⁶ cm/s. The molecule further registered a logD in data set [2] of 3 to 5. The IC50 in data set [3] fell in the range of 25 to 250 nM.
`COC(=O)/C=C/CC[C@H](NC(=O)c1cc(Cl)sc1Cl)C(=O)Nc1cccn(CC(=O)NC23CC4(C)CC(C)(CC(C)(C4)C2)C3)c1=O` [III-94, (S,E)-methyl 6-(2,5-dichlorothiophene-3-carboxamido)-7-(1-(2-(3,5,7-trimethyl-1-adamantylamino)-2-oxoethyl)-2-oxo-1,2-dihydropyridin-3-ylamino)-7-oxohept-2-enoate]: the Papp in data set [1] fell in the range of 1 to 10 ×10⁻⁶ cm/s. In addition, the logD in data set [2] lay in the range of 3 to 5. For the same molecule, the IC50 in data set [3] is less than 25 nM.
For `COC(=O)/C=C/CC[C@H](NC(=O)c1oc2ccccc2c1C)C(=O)Nc1cccn(CC(=O)NC2CC3C=CC2C3)c1=O` (stereo partly drawn) [III-66, (S,E)-methyl 7-(1-(2-(bicyclo[2.2.1]hept-5-en-2-ylamino)-2-oxoethyl)-2-oxo-1,2-dihydropyridin-3-ylamino)-6-(3-methylbenzofuran-2-carboxamido)-7-oxohept-2-enoate], in that order: 1 to 10 ×10⁻⁶ cm/s, 1 to 3 and 25 to 250 nM.
For `CCn1c(C(=O)N[C@@H](CC/C=C/C(=O)NC2CCCCC2)C(=O)Nc2cccn(CC(=O)NC34CC(C3)C4)c2=O)cc2ccccc21` [III-148, (S,E)-N7-(1-(2-(bicyclo[1.1.1]pentan-1-ylamino)-2-oxoethyl)-2-oxo-1,2-dihydropyridin-3-yl)-N1-cyclohexyl-6-(1-ethyl-1H-indole-2-carboxamido)hept-2-enediamide], in that order: 1 to 10 ×10⁻⁶ cm/s, 3 to 5 and 25 to 250 nM.
For `COC(=O)/C=C/CC[C@H](NC(=O)c1nn[nH]n1)C(=O)Nc1cccn(CC(=O)NC2C3CC4CC(C3)CC2C4)c1=O` (stereo partly drawn) [III-23, (S,E)-methyl 7-(1-(2-(2-adamantylamino)-2-oxoethyl)-2-oxo-1,2-dihydropyridin-3-ylamino)-7-oxo-6-(2H-tetrazole-5-carboxamido)hept-2-enoate], in that order: 1 to 10 ×10⁻⁶ cm/s, 1 to 3 and 25 to 250 nM.
`COC(=O)/C=C/CC[C@H](NC(=O)[C@@H]1CCCNC1)C(=O)Nc1cccn(CC(=O)NC2C3CC4CC(C3)CC2C4)c1=O` (stereo partly drawn) [III-30, (S,E)-methyl 7-(1-(2-(2-adamantylamino)-2-oxoethyl)-2-oxo-1,2-dihydropyridin-3-ylamino)-7-oxo-6-((R)-piperidine-3-carboxamido)hept-2-enoate] showed a Papp in data set [1] of less than 1 ×10⁻⁶ cm/s. Besides, in data set [2], the logD was 3 to 5. In data set [3], the 50% inhibitory concentration (IC50) fell in the range of 25 to 250 nM.
On the same counts, the results for `COC(=O)/C=C/CC[C@H](NC(=O)c1ccnn1C)C(=O)Nc1cccn(CC(=O)N[C@@H]2C[C@H]3CC[C@@H]2C3)c1=O` [III-111, (S,E)-methyl 7-(1-(2-((1R,2R,4S)-bicyclo[2.2.1]heptan-2-ylamino)-2-oxoethyl)-2-oxo-1,2-dihydropyridin-3-ylamino)-6-(1-methyl-1H-pyrazole-5-carboxamido)-7-oxohept-2-enoate] are less than 1 ×10⁻⁶ cm/s, 1 to 3 and less than 25 nM.
Regarding `COC(=O)/C=C/CC[C@H](NC(=O)c1nc[nH]n1)C(=O)Nc1cccn(CC(=O)NC2C3CC4CC(C3)CC2C4)c1=O` (stereo partly drawn) [III-104, (S,E)-methyl 7-(1-(2-(2-adamantylamino)-2-oxoethyl)-2-oxo-1,2-dihydropyridin-3-ylamino)-7-oxo-6-(1H-1,2,4-triazole-3-carboxamido)hept-2-enoate], the Papp in data set [1] was less than 1 ×10⁻⁶ cm/s. The molecule also displayed a logD in data set [2] of 1 to 3. The IC50 in data set [3] fell in the range of 25 to 250 nM.
`COC(=O)/C=C/CC[C@H](NC(=O)C1CN2CCC1CC2)C(=O)Nc1cccn(CC(=O)NC2C3CC4CC(C3)CC2C4)c1=O` (stereo partly drawn) [III-32, (S,E)-methyl 7-(1-(2-(2-adamantylamino)-2-oxoethyl)-2-oxo-1,2-dihydropyridin-3-ylamino)-7-oxo-6-(quinuclidine-3-carboxamido)hept-2-enoate] returned a Papp in data set [1] of less than 1 ×10⁻⁶ cm/s. In data set [2], this molecule showed a pH-dependent lipophilicity (logD) of 3 to 5. Further, the IC50 in data set [3] was 25 to 250 nM.
For `COC(=O)/C=C/CC[C@H](NC(=O)c1oc2ccccc2c1C)C(=O)Nc1cccn(CC23CC4CC(CC(Br)(C4)C2)C3)c1=O` [III-81, (6S, E)-methyl 7-(1-((3-bromo-1-adamantyl)methyl)-2-oxo-1,2-dihydropyridin-3-ylamino)-6-(3-methylbenzofuran-2-carboxamido)-7-oxohept-2-enoate], in that order: 1 to 10 ×10⁻⁶ cm/s, 3 to 5 and 250 to 1500 nM.
In the case of `COC(=O)/C=C/CC[C@H](NC(=O)c1cc(Cl)sc1Cl)C(=O)Nc1cccn(CC(=O)N[C@H]2C[C@H]3CC[C@]2(C)C3(C)C)c1=O` [III-128, (S,E)-methyl 6-(2,5-dichlorothiophene-3-carboxamido)-7-oxo-7-(2-oxo-1-(2-oxo-2-((1R,2S,4R)-1,7,7-trimethylbicyclo[2.2.1]heptan-2-ylamino)ethyl)-1,2-dihydropyridin-3-ylamino)hept-2-enoate], the apparent permeability coefficient (Papp) in data set [1] was 1 to 10 ×10⁻⁶ cm/s. In data set [2], this molecule displayed a logD of 3 to 5. In data set [3], the IC50 was less than 25 nM.
